Tests used:
M. croceipes = system: M. croceipes; set-up: species or system Microplitis croceipes; conditions: in vivo
[1] = system: Male and female M. croceipes; set-up: species or system Microplitis croceipes; conditions: in vivo

## CCCCCC(=O)CC [3-Octanone]
M. croceipes
  Average number of times a trained wasp entered the opening: approximately 1.5
  Average time spent in the opening: 15 s
  Trained wasps displaying head-sticking behavior: about 18 out of 20
[1]
  Head-sticking behavior: no head-sticking behavior
